Assay results taken from ChEMBL document CHEMBL2375347, “Discovery of adamantane based highly potent HDAC inhibitors” (Bioorg Med Chem Lett, 2013).

Key:
[1] = tested on: HCT-116; experiment: Cytotoxicity against human HCT116 cells by MTT assay; type: functional
[2] = Inhibition of mouse liver HDAC by fluorescence assay
[3] = tested on: NCI-H460; experiment: Cytotoxicity against human NCI-H460 cells by MTT assay; type: functional
[4] = tested on: U-251; experiment: Cytotoxicity against human U251 cells by MTT assay; type: functional
[5] = tested on: NCI-H460; experiment: Antitumor activity against human NCI-H460 cells xenografted in SCID mouse assessed as tumor growth inhibition at 5 mg/kg, ip qd for 21 days; type: functional; settings: 504 h, route intraperitoneal, read-out: TGI
[6] = Toxicity in SCID mouse xenografted with human NCI-H460 cells; type: organism-based; settings: in vivo
[7] = tested on: Mus musculus; experiment: Toxicity in SCID mouse xenografted with human NCI-H460 cells assessed as loss in body weight at 5 mg/kg, ip qd for 21 days relative to control; type: organism-based; parameters: dose 5 mg/kg, route intraperitoneal; settings: in vivo, 504 h

| Compound | IC50 [2] [nM] | GI50 [1] [nM] | GI50 [3] [nM] | GI50 [4] [nM] | inhibition in vivo at 5 mg/kg [5] [%] | MTD [6] [mg/kg] | Activity [7] [%] |
| --- | --- | --- | --- | --- | --- | --- | --- |
| O=C(/C=C/c1ccc(CNC23CC4CC(CC(Cl)(C4)C2)C3)cc1)NO | 40 | 11000 | 4000 | 14000 |  |  |  |
| O=C(/C=C/c1ccc(CNCC23CC4CC(CC(F)(C4)C2)C3)cc1)NO | 6 | 30 | 30 | 180 |  |  |  |
| O=C(/C=C/c1ccc(CNC2C3CC4CC(C3)CC2C4)cc1)NO (stereo unspecified) | 60 | 80 | 70 | 170 |  |  |  |
| O=C(/C=C/c1ccc(CNCCC2C3CC4CC(C3)CC2C4)cc1)NO (stereo unspecified) | 0.28 | 60 | 10 | 50 |  |  |  |
| O=C(/C=C/c1ccc(CN2CC3CC4CC(C3)CC2C4)cc1)NO | 110 | 1800 | 4900 | 1700 |  |  |  |
| O=C(/C=C/c1ccc(CNCC23CC4CC(CC2C4)C3)cc1)NO | 0.02 | 10 | 10 | 30 | 45 | 7.5 | < 10 |
| CC(NCc1ccc(/C=C/C(=O)NO)cc1)C12CC3CC(CC1C3)C2 (stereo unspecified) | 0.03 | 30 | 30 | 50 |  |  |  |
| CCOC12CC3CC(CC(NCc4ccc(/C=C/C(=O)NO)cc4)(C3)C1)C2 | 460 | 1000 | 6000 | 2800 |  |  |  |
| COC12CC3CC(CC(NCc4ccc(/C=C/C(=O)NO)cc4)(C3)C1)C2 | 260 | 1600 | 7000 | 7000 |  |  |  |
| O=C(/C=C/c1ccc(CNC23CC4CC(CC(O)(C4)C2)C3)cc1)NO | 250 | 3000 | 8000 | 4200 |  |  |  |
| O=C(/C=C/c1ccc(CNC23CC4CC(C2)CC(c2ccccc2)(C4)C3)cc1)NO | 440 | 2200 | 5000 | 3200 |  |  |  |
| O=C(CCCCCCC(=O)Nc1ccccc1)NO [VORINOSTAT] |  | 1000 | 1000 | 2000 |  |  |  |

More lines, main results first:

| IC50 [2] [nM] | Compound | GI50 [1] [nM] | GI50 [3] [nM] | GI50 [4] [nM] | inhibition in vivo at 5 mg/kg [5] [%] | MTD [6] [mg/kg] | Activity [7] [%] |
| --- | --- | --- | --- | --- | --- | --- | --- |
| 67 | O=C(/C=C/c1ccc(CNC(=O)C23CC4CC(CC(C4)C2)C3)cc1)NO | 100 | 100 | 170 |  |  |  |
| 1.1 | O=C(/C=C/c1ccc(CNCC23CC4CC(CC(C4)C2)C3)cc1)NO | 500 | 300 | 800 |  |  |  |
| 77 | O=C(/C=C/c1ccc(CNC(=O)C23CC4CC(CC(F)(C4)C2)C3)cc1)NO | 500 | 500 | 1900 |  |  |  |
| 1.8 | O=C(/C=C/c1ccc(CNC(=O)CC23CC4CC(CC(C4)C2)C3)cc1)NO | 1100 | 1300 | 1600 |  |  |  |
| 0.9 | O=C(/C=C/c1ccc(CNCCC23CC4CC(CC(C4)C2)C3)cc1)NO | 450 | 1100 | 1300 |  |  |  |
| 8 | O=C(/C=C/c1ccc(CNC(=O)CC2C3CC4CC(C3)CC2C4)cc1)NO (stereo unspecified) | 500 | 400 | 260 |  |  |  |
| 25 | O=C(/C=C/c1ccc(CNC(=O)C23CC4CC(CC2C4)C3)cc1)NO | 380 | 350 | 600 |  |  |  |
| 70 | O=C(/C=C/c1ccc(CNC23CC4CC(CC(C4)C2)C3)cc1)NO | 500 | 2800 | 2700 |  |  |  |
| 240 | O=C(/C=C/c1ccc(CNC23CC4CC(CC(CO)(C4)C2)C3)cc1)NO | 2800 | 9500 | 6000 |  |  |  |
